The numbers were not newly measured in patent US9592310B1 (priority 2004, dated 2017), which cites them from elsewhere.

For `[O][Cl+][O-]` [Chlorine dioxide], the “concentration at which chlorine dioxide is stable in water and aqueous solutions” value is “approximately 10 grams per Liter”.
